Measured values: PubChem BioAssay AID1996
≈ marks a conversion by molar mass, not a printed value. Where “and” joins values, the source holds several entries; their conditions need not be identical. Equal entries are not always repeated.

Details: buffer; pH 7.4; 200.0 µM

Structure (SMILES) | solubility kinetic
c1cc(OCCCN2CCCCC2)ccc1CN1CCCCC1 | 44.7 µg/mL (≈ 141 µM)
CC1CCN(S(=O)(=O)c2ccc([N+](=O)[O-])cc2)CC1 | 3.2 µg/mL (≈ 11.3 µM)
Cc1cc(C)c(NC(=O)COC(=O)C2CCCO2)c(C)c1 (configuration not stated) | > 43.7 µg/mL
CCCCCc1c(C)[nH]c2nc3ccccc3n2c1=O | 0.3 µg/mL (≈ 1.11 µM)
O=C(NCCN1CCOCC1)NC1(C(F)(F)F)Oc2ccc(Cl)cc2O1 (configuration not stated) | > 59.4 µg/mL
C=CCNC(=S)Nc1nc2c(cc1C(=O)OCC)COC(C)(C)C2 | 3.1 µg/mL (≈ 8.87 µM)
CCN(CC)S(=O)(=O)c1ccc(N2CCCC2)c(NC(=O)c2ccc([N+](=O)[O-])o2)c1 | 49.4 µg/mL (≈ 113 µM)
CC(=O)Nc1ccc(NC(=O)CN2C(=O)NC3(CCCCCCC3)C2=O)cc1 | 45.1 µg/mL (≈ 117 µM)
O=C(COc1cccnc1[N+](=O)[O-])Nc1ccc(Cl)cc1F | 4.6 µg/mL (≈ 14.1 µM)
Cc1ccc(NC(=O)c2cc(C)nc3ccccc23)c(C)c1 | 27.1 µg/mL (≈ 93.3 µM)
CC(=O)NCCc1nc2ccccc2n1Cc1cccc(C)c1 | > 46.1 µg/mL
Cc1ccccc1Sc1ccc([N+](=O)[O-])cn1 | 7.4 µg/mL (≈ 30 µM)
Cc1cccc(N2CCN(Cc3ccc4c(c3)OCO4)CC2)c1C | 4 µg/mL (≈ 12.3 µM)
CS(=O)(=O)Nc1ccccc1NS(C)(=O)=O | > 39.6 µg/mL
O=C(Cc1cccs1)NC(Cc1c[nH]c2ccccc12)C(=O)O (configuration not stated) | > 49.3 µg/mL
O=C(O)c1csc(-c2cccc(Cl)c2)n1 | 33.9 µg/mL (≈ 141 µM)
O=C(Cc1ccccc1F)Nc1cc(S(=O)(=O)N2CCOCC2)ccc1N1CCCC1 | 15.1 µg/mL (≈ 33.7 µM)
CCOc1ccccc1NS(=O)(=O)c1ccc2oc(=O)ccc2c1 | 43.6 µg/mL (≈ 126 µM)
O=Cc1cn(CC(=O)Nc2ccccc2)c2ccccc12 | 4.1 µg/mL (≈ 14.7 µM)
COc1ccc(S(=O)(=O)N2CC(C)N(C(=O)N3CCOCC3)C2)cc1 (configuration not stated) | > 55.4 µg/mL
O=C(c1ccc2c(c1)OCO2)C1CCCN(CC2CCCCC2)C1 (configuration not stated) | > 49.4 µg/mL
CN(C)/C=N/C(=S)Nc1ccccc1 | > 31.1 µg/mL
CCC(=O)c1cn(CC(=O)Nc2ccccc2F)c2ccccc12 | 3.2 µg/mL (≈ 9.87 µM)
Cc1ccc(NC(=O)OCCNC(=O)OC(C)C)cc1 | 33.1 µg/mL (≈ 118 µM)

Structure (SMILES) | solubility kinetic
CC1CCN(C(=O)COC(=O)Cn2cnc3ccccc32)CC1 | > 47.3 µg/mL
Oc1ccc(-c2nccc(-c3ccccn3)n2)cc1 | 12.6 µg/mL (≈ 50.5 µM)
Cc1cc(=O)[nH]c(SCC(=O)N2CC3(C)CC2CC(C)(C)C3)n1 (configuration not stated) | > 50.3 µg/mL
CCOC(=O)c1ccc(Nc2ncccc2[N+](=O)[O-])cc1 | 1 µg/mL (≈ 3.48 µM)
COc1ccc(C2=C(c3ccc([N+](=O)[O-])cc3)C(=O)OC2)cc1 | 3.4 µg/mL (≈ 10.9 µM)
Cc1ccccc1OCC(=O)OCC(=O)Nc1ccc2c(c1)OCO2 | 14.9 µg/mL (≈ 43.4 µM)
CSc1ncccc1C(=O)OCc1ccc([N+](=O)[O-])cc1 | 0.9 µg/mL (≈ 2.96 µM)
Cc1cc(S(=O)(=O)NCC2CC2)c(Cl)cc1Cl | > 44.1 µg/mL
Cc1cnc(C(=O)N2CCN(c3ccc(C(F)(F)F)cn3)CC2)cn1 | 48 µg/mL (≈ 137 µM)
Cc1cc(NC(=O)/C=C\C(=O)O)c([N+](=O)[O-])cc1C | 39.4 µg/mL (≈ 149 µM)
S=C(NCc1cccs1)NCC1CCCO1 (configuration not stated) | > 38.5 µg/mL
CC1CCC(N(C)C2CCN(C)CC2)CC1 (configuration not stated) | 22.4 µg/mL (≈ 99.8 µM)
Cc1ccc(CC(=O)NCCN2CCOCC2)cc1 | > 39.4 µg/mL
O=c1c([N+](=O)[O-])c(O)c2cccc3c2n1CCC3 | 36.3 µg/mL (≈ 147 µM)
Cl.O=C(c1cccc(S(=O)(=O)N2CCc3ccccc32)c1)N1CCN(CCO)CC1 | > 67.8 µg/mL
O=C(Cc1ccccc1)NC1CCSc2ccccc21 (configuration not stated) | 11.7 µg/mL (≈ 41.3 µM)
CCOc1ccc(C(=O)C(C)OC(=O)c2cnc(C)cn2)cc1 (configuration not stated) | > 47.2 µg/mL
CCOC(=O)NC(=O)CSc1ccc(C)cc1C | > 40.1 µg/mL
N#C/C(=C\c1c[nH]c2ccccc12)C(=O)NC1CC1 | 11.4 µg/mL (≈ 45.4 µM)
Cc1cccc(N(C)S(=O)(=O)c2c(C)noc2C)c1 | 37.1 µg/mL (≈ 132 µM)
CCSC(=O)NC1CCCCC1 | 14.4 µg/mL (≈ 76.9 µM)
O=C(CCc1ccccc1)Nc1cccc(S(=O)(=O)N2CCOCC2)c1 | 50.6 µg/mL (≈ 135 µM)
CC1CCCCC1NC(=O)COC(=O)c1cccn1C (configuration not stated) | > 41.8 µg/mL
O=C1NN(c2ccc(F)cc2)C(=O)/C1=C/c1cccs1 | > 43.2 µg/mL

Structure (SMILES) | solubility kinetic
CC(C)CC(=O)Nc1ccc(Oc2ccc3c(c2)C(=O)NC3=O)cc1 | 0.4 µg/mL (≈ 1.18 µM)
O=[N+]([O-])c1ccc(-c2cn3ccccc3n2)cc1 | 1.7 µg/mL (≈ 7.11 µM)
C/C(CC(=O)Nc1ccccn1)=N\NC(=O)c1cccc(C)c1 | > 46.6 µg/mL
Cc1ccc(NC(=O)NCc2cccnc2)cc1Cl | 39.7 µg/mL (≈ 144 µM)
Cc1ccc2c(c1)sc(=NC(=O)c1cccs1)n2C | < 0.3 µg/mL
O=C(CCc1ccc(S(=O)(=O)N2CCOCC2)cc1)Nc1c(F)cccc1F | > 61.6 µg/mL
CC(=O)Nc1ccc(S(=O)(=O)Nc2ccn(Cc3ccccc3Cl)n2)cc1 | > 60.7 µg/mL
CCOc1ccccc1NC(=O)Cc1coc2ccc(C)cc12 | 7.3 µg/mL (≈ 23.6 µM)
Cc1ccccc1N1CCN(C(=O)NCc2cccc(Cl)c2)CC1 | 3.3 µg/mL (≈ 9.6 µM)
CSc1sc(C#N)c2c1/C(=N\O)CCC2 | 1 µg/mL (≈ 4.2 µM)
Cc1ccc(N=C2CSC(=O)N2)cc1 | 23.4 µg/mL (≈ 113 µM)
COc1cc2c(cc1OC)C(c1ccc(C)cc1)NC(=O)C2 (configuration not stated) | 42.5 µg/mL (≈ 143 µM)
CN1CCN(c2nc(-c3ccccc3O)nc3ccccc23)CC1 | 1 µg/mL (≈ 3.12 µM)
CCN(CC)CC1C(=O)N(c2ccc(OC)cc2)C1c1ccccc1 (configuration not stated) | > 50.8 µg/mL
COc1ccc(S(=O)(=O)N2CCN(C(=O)c3cc(C)nc4ccccc34)CC2)cc1OC | > 68.3 µg/mL
Cc1ccccc1OCC(=O)Nc1ccc2c(c1)n(C)c(=O)n2C | 46.2 µg/mL (≈ 142 µM)
Cl.O=C(NC1CCN(Cc2ccccc2)CC1)c1ccccc1NS(=O)(=O)c1ccc(F)cc1 | > 75.6 µg/mL
COC(=O)c1ccc(/C=C/C(=O)OCC(=O)c2ccc[nH]2)cc1 | 6.8 µg/mL (≈ 21.7 µM)
COc1cccc(NC(=O)N2C3CCCC2CC(NC(C)=O)C3)c1 (configuration not stated) | > 49.7 µg/mL
CC1=NOC(=O)/C1=C/c1ccc(O)c(Br)c1 | 32.4 µg/mL (≈ 115 µM)
CC(C)(C)N(Cc1ccccc1)C(=O)COC(=O)c1ccc2ccccc2n1 | 3 µg/mL (≈ 7.97 µM)
CC(C)C(=O)Nc1ccc([N+](=O)[O-])c(C(F)(F)F)c1 | > 41.4 µg/mL
Cc1ccccc1C(=O)NCC(=O)Nc1ccccc1C(F)(F)F | > 50.4 µg/mL
CC(=O)COc1nc2c(c(-c3ccco3)c1C#N)CCc1ccccc1-2 | 1.7 µg/mL (≈ 4.94 µM)

Structure (SMILES) | solubility kinetic
COCCN1C(=O)c2ccc(C(=O)NCc3ccco3)cc2C1=O | > 49.2 µg/mL
CNCCCC12CCC(c3ccccc31)c1ccccc12.Cl | 45.8 µg/mL and > 47.1 µg/mL
Cc1ccnc(SCC(=O)NC2CC2)n1 | > 33.5 µg/mL
COc1ccc(C(=O)Nc2nc3ccccc3[nH]2)cc1 | 4.1 µg/mL (≈ 15.3 µM)
Cc1ccc(OCCSc2nc3ncnc(N)c3[nH]2)cc1 | 3.8 µg/mL (≈ 12.6 µM)
C/C(N)=C(/C#N)C(=O)COC(=O)c1ccccc1Cc1ccccc1 | 22.3 µg/mL (≈ 66.7 µM)
O=C(CCN1CCN(c2ccccc2F)CC1)Nc1ccccc1Cl | > 54.3 µg/mL
COc1cccc(/C=C/C(=O)OCC(=O)NC2CC2)c1 | > 41.3 µg/mL
CC(Nc1nc(-c2ccccc2F)nc2ccccc12)c1ccccc1 (configuration not stated) | 3.2 µg/mL (≈ 9.32 µM)
CCOC(=O)c1cc(-c2csc(-c3ccc(C(C)(C)C)cc3)n2)on1 | 0.4 µg/mL (≈ 1.12 µM)
O=S(=O)(Nc1ccon1)c1ccc(Br)s1 | 31.3 µg/mL (≈ 101 µM)
COC(=O)c1ccccc1NC(=S)N1CCOCC1 | 40.1 µg/mL (≈ 143 µM)
Cc1cccc(NC(=S)NC23CN4CN(CN(C4)C2)C3)c1C | 46.8 µg/mL (≈ 147 µM)
Cc1ccc(S(=O)(=O)NCCNc2ccc(Br)c(C)c2)cc1 | 0.6 µg/mL (≈ 1.57 µM)
O=C(c1cc2ccccc2oc1=O)N1CCCCCCC1 | 42.5 µg/mL (≈ 149 µM)
CN1CCCN(C(=O)c2cccc(Cl)c2)CC1 | > 37.9 µg/mL
COC(=O)C(O)(c1ccc(N(C)C)cc1)C(F)(F)F (configuration not stated) | 38 µg/mL (≈ 137 µM)
CCNC(=O)COC(=O)c1sccc1C | > 34.1 µg/mL
NC(=O)c1cc2c(s1)-c1cc(Cl)ccc1SC2 | 0.8 µg/mL (≈ 2.84 µM)
COC(=O)Cn1cnc2scc(-c3ccc(C)c(C)c3)c2c1=O | 33.7 µg/mL (≈ 103 µM)
COc1ccc(NC(=O)CNC(=O)Cc2ccccc2)cc1 | 10.6 µg/mL (≈ 35.5 µM)
Cc1ccc(C(=O)N(C)CC(=O)Nc2ccc(F)c(F)c2F)o1 | > 48.9 µg/mL
COc1cccc(N2CCN(C(=O)CSc3ccc(F)cc3)CC2)c1 | 50.2 µg/mL (≈ 139 µM)
O=C(CSc1nccc(-c2cccs2)n1)Nc1cccc(Cl)c1 | 2.2 µg/mL (≈ 6.08 µM)

Structure (SMILES) | solubility kinetic
CCOc1nc2ccccc2cc1/C=C/C(=O)O | 13.1 µg/mL (≈ 53.9 µM)
O=[N+]([O-])c1ccc(Nc2ccccn2)c([N+](=O)[O-])c1 | 2.7 µg/mL (≈ 10.4 µM)
O=S(=O)(c1ccc2ncn(O)c2c1)N1CCOCC1 | > 42.5 µg/mL
CSc1ccccc1NC(=O)Cn1c([N+](=O)[O-])cnc1C | 41.5 µg/mL (≈ 135 µM)
COCCNC(=O)Cn1cc(C(=O)c2ccccc2F)c2ccccc21 | 17.9 µg/mL (≈ 50.5 µM)
Cc1ccc2nc(CCc3nc4ccc(C)cc4[nH]3)[nH]c2c1.Cl | 8.9 µg/mL
CN(C(=O)CN1C(=O)c2ccc([N+](=O)[O-])cc2C1=O)C1CCCCC1 | > 51.8 µg/mL
COC(=O)[C@H](CC(C)C)NC(=O)Nc1ccc(S(N)(=O)=O)cc1 | > 51.5 µg/mL
Cc1cc(C)cc(NC(=O)CCN2C(=O)c3ccccc3C2=O)c1 | 2.5 µg/mL (≈ 7.76 µM)
Cc1cc(C)c(C(=O)C(C)OC(=O)c2ccccn2)cc1C (configuration not stated) | 17.7 µg/mL (≈ 59.5 µM)
CC(C)=C(NC(=O)c1ccccc1)C(=O)Nc1ccc(C(=O)O)cc1 | > 50.8 µg/mL
CCN1CC(CN(C)Cc2nc(-c3ccc(Cl)cc3)no2)CC1=O (configuration not stated) | > 52.3 µg/mL
CC(=O)c1cc(C(C)=O)c(C)nc1C | > 28.7 µg/mL
COc1cc(C(=O)O)c([N+](=O)[O-])c(OC)c1OC | > 38.6 µg/mL
COc1ccc(C)cc1NC(=O)CN1CCCC1c1ccc2c(c1)OCCCO2 (configuration not stated) | 13.6 µg/mL (≈ 34.3 µM)
COCCNC(=O)c1cccc2c1-c1ccccc1C2=O | > 42.2 µg/mL
COc1ccc(C(=O)NCCNC(=O)c2cnccn2)cc1 | 37.1 µg/mL (≈ 124 µM)
CSCC[C@H](NC(=O)Nc1cccc(Br)c1)C(=O)O | 39.4 µg/mL (≈ 113 µM)
CCCCCCCCCCCCCCCC(=O)OC(CC(=O)O)C[N+](C)(C)C.[Cl-] (configuration not stated) | 4.5 µg/mL
Cc1noc(NS(=O)(=O)c2ccc(NC(=O)c3cccc(S(=O)(=O)Nc4ccccc4F)c3)cc2)c1C | 71.3 µg/mL (≈ 131 µM)
C[C@]12C=CC(=O)C=C1CC[C@@H]1C2=CC[C@]2(C)[C@@H](C(=O)CN3CCN(c4cc(N5CCCC5)nc(N5CCCC5)n4)CC3)CC[C@@H]12.O=C(O)/C=C\C(=O)O | 48.2 µg/mL
